Reference: ChEMBL document CHEMBL3045501, “Anti-inflammatory activity of 2,5-dihydroxycyclohepta-2,4,6-trienone in rats” (Med Chem Res, 2010)

Columns and labels:
Rattus norvegicus [1] = experiment: Toxicity in Rattus norvegicus Wistar albino (rat) assessed as lethargy at 18.1 to 36.2 X 10^2 umol/kg, po; format: organism-based; details: in vivo
Rattus norvegicus [2] = experiment: Toxicity in Rattus norvegicus Wistar albino (rat) assessed as drinking frequency at 18.1 to 36.2 X 10^2 umol/kg, po; format: organism-based; details: in vivo
[3] = Toxicity in Rattus norvegicus Wistar albino (rat) assessed as mortality at 61.54 X 10^2 umol/kg, po; format: organism-based; details: in vivo, read-out: Activity
[4] = Toxicity in po dosed Rattus norvegicus Wistar albino (rat) assessed as mortality; format: organism-based; details: in vivo
Rattus norvegicus [5] = experiment: Anti-inflammatory activity in Rattus norvegicus Wistar albino (rat) assessed as inhibition of carrageenan-induced paw edema at 14.48 X 10^2 umol/kg, po administered 1 hr prior to carrageenan challenge through oral gavage measured measured 4 hr after carrageenan treatment by plethysmometer; format: functional
Rattus norvegicus [6] = experiment: Anti-inflammatory activity in Rattus norvegicus Wistar albino (rat) assessed as inhibition of carrageenan-induced paw edema at 3.62 X 10^2 umol/kg, po administered 1 hr prior to carrageenan challenge through oral gavage measured 1 hr after carrageenan treatment by plethysmometer; format: functional
Rattus norvegicus [7] = experiment: Anti-inflammatory activity in Rattus norvegicus Wistar albino (rat) assessed as inhibition of carrageenan-induced paw edema at 14.48 X 10^2 umol/kg, po administered 1 hr prior to carrageenan challenge through oral gavage measured measured 2 hr after carrageenan treatment by plethysmometer; format: functional
Rattus norvegicus [8] = experiment: Toxicity in Rattus norvegicus Wistar albino (rat) assessed as animal posture at 61.54 umol/kg, po; format: organism-based; details: in vivo
Rattus norvegicus [9] = experiment: Anti-inflammatory activity in Rattus norvegicus Wistar albino (rat) assessed as inhibition of carrageenan-induced paw edema at 14.48 X 10^2 umol/kg, po administered 1 hr prior to carrageenan challenge through oral gavage measured measured 3 hr after carrageenan treatment by plethysmometer; format: functional
Rattus norvegicus [10] = experiment: Toxicity in Rattus norvegicus Wistar albino (rat) assessed as mortality at 18.1 to 54.3 X 10^2 umol/kg, po; format: organism-based; details: in vivo
Oryctolagus cuniculus [11] = experiment: (§1) Inhibition of hyaluronidase-induced capillary permeability in albino Oryctolagus cuniculus (rabbit) assessed as area of subcutaneous spreading of trypan blue at 3.62 x 10^2 umol/kg, po pretreated 1 hr prior to mixture of hyaluronidase and trypan blue challenge measured after 5 min (reference value: 288.5 mm'2); format: functional
Rattus norvegicus [12] = experiment: Toxicity in Rattus norvegicus Wistar albino (rat) assessed as mortality at 68.78 X 10^2 umol/kg, po; format: organism-based; details: in vivo
[13] = Toxicity in Rattus norvegicus Wistar albino (rat) assessed as mortality at 57.92 X 10^2 umol/kg, po; format: organism-based; details: in vivo, read-out: Activity
[14] = Toxicity in Rattus norvegicus Wistar albino (rat) assessed as mortality at 65.16 X 10^2 umol/kg, po; format: organism-based; details: in vivo, read-out: Activity
Oryctolagus cuniculus [15] = experiment: as §1, with “30” for “5”, “498.8” for “288.5”; format: functional
Oryctolagus cuniculus [16] = experiment: as §1, with “7.24” for “3.62”; format: functional
Rattus norvegicus [17] = experiment: Anti-inflammatory activity in Rattus norvegicus Wistar albino (rat) assessed as inhibition of carrageenan-induced paw edema at 7.24 X 10^2 umol/kg, po administered 1 hr prior to carrageenan challenge through oral gavage measured measured 3 hr after carrageenan treatment by plethysmometer; format: functional
Rattus norvegicus [18] = experiment: Toxicity in Rattus norvegicus Wistar albino (rat) assessed as lethargy at 57.92 X 10^2 umol/kg, po; format: organism-based; details: in vivo
Oryctolagus cuniculus [19] = experiment: as §1, with “7.24” for “3.62”, “30” for “5”, “498.8” for “288.5”; format: functional
Rattus norvegicus [20] = experiment: Anti-inflammatory activity in Rattus norvegicus Wistar albino (rat) assessed as inhibition of carrageenan-induced paw edema at 7.24 X 10^2 umol/kg, po administered 1 hr prior to carrageenan challenge through oral gavage measured measured 4 hr after carrageenan treatment by plethysmometer; format: functional
Rattus norvegicus [21] = experiment: Anti-inflammatory activity in Rattus norvegicus Wistar albino (rat) assessed as inhibition of carrageenan-induced paw edema at 14.48 X 10^2 umol/kg, po administered 1 hr prior to carrageenan challenge through oral gavage measured measured 1 hr after carrageenan treatment by plethysmometer; format: functional
Rattus norvegicus [22] = experiment: Anti-inflammatory activity in Rattus norvegicus Wistar albino (rat) assessed as inhibition of carrageenan-induced paw edema at 3.62 X 10^2 umol/kg, po administered 1 hr prior to carrageenan challenge through oral gavage measured 2 hr after carrageenan treatment by plethysmometer; format: functional
Rattus norvegicus [23] = experiment: Anti-inflammatory activity in Rattus norvegicus Wistar albino (rat) assessed as inhibition of carrageenan-induced paw edema at 7.24 X 10^2 umol/kg, po administered 1 hr prior to carrageenan challenge through oral gavage measured measured 1 hr after carrageenan treatment by plethysmometer; format: functional
Rattus norvegicus [24] = experiment: Anti-inflammatory activity in Rattus norvegicus Wistar albino (rat) assessed as inhibition of carrageenan-induced paw edema at 3.62 X 10^2 umol/kg, po administered 1 hr prior to carrageenan challenge through oral gavage measured 4 hr after carrageenan treatment by plethysmometer; format: functional
Rattus norvegicus [25] = experiment: Toxicity in Rattus norvegicus Wistar albino (rat) assessed as mortality at 65.16 to 68.78 X 10^2 umol/kg, po measured after 12 hr; format: organism-based; details: in vivo
Rattus norvegicus [26] = experiment: Anti-inflammatory activity in Rattus norvegicus Wistar albino (rat) assessed as inhibition of carrageenan-induced paw edema at 7.24 X 10^2 umol/kg, po administered 1 hr prior to carrageenan challenge through oral gavage measured measured 2 hr after carrageenan treatment by plethysmometer; format: functional
Rattus norvegicus [27] = experiment: Toxicity in Rattus norvegicus Wistar albino (rat) assessed as lethargy at 54.3 X 10^2 umol/kg, po; format: organism-based; details: in vivo
Rattus norvegicus [28] = experiment: Anti-inflammatory activity in Rattus norvegicus Wistar albino (rat) assessed as inhibition of carrageenan-induced paw edema at 3.62 X 10^2 umol/kg, po administered 1 hr prior to carrageenan challenge through oral gavage measured 3 hr after carrageenan treatment by plethysmometer; format: functional
Rattus norvegicus [29] = experiment: Anti-inflammatory activity in Rattus norvegicus Wistar albino (rat) assessed as inhibition of carrageenan-induced paw edema at 69.8 X 10^2 umol/kg, po administered 1 hr prior to carrageenan challenge through oral gavage measured measured 4 hr after carrageenan treatment by plethysmometer; format: functional
Rattus norvegicus [30] = experiment: Anti-inflammatory activity in Rattus norvegicus Wistar albino (rat) assessed as inhibition of carrageenan-induced paw edema at 69.8 X 10^2 umol/kg, po administered 1 hr prior to carrageenan challenge through oral gavage measured measured 2 hr after carrageenan treatment by plethysmometer; format: functional
Rattus norvegicus [31] = experiment: Toxicity in Rattus norvegicus Wistar albino (rat) assessed as mortality at 139.6 umol/kg, po; format: organism-based; details: in vivo
Rattus norvegicus [32] = experiment: Anti-inflammatory activity in Rattus norvegicus Wistar albino (rat) assessed as inhibition of carrageenan-induced paw edema at 69.8 X 10^2 umol/kg, po administered 1 hr prior to carrageenan challenge through oral gavage measured measured 1 hr after carrageenan treatment by plethysmometer; format: functional
Oryctolagus cuniculus [33] = experiment: as §1, with “27.9” for “3.62 x 10^2”, “30” for “5”, “498.8” for “288.5”; format: functional
Oryctolagus cuniculus [34] = experiment: as §1, with “27.9” for “3.62 x 10^2”; format: functional
Rattus norvegicus [35] = experiment: Toxicity in Rattus norvegicus Wistar albino (rat) assessed as mortality at 69.8 umol/kg, po; format: organism-based; details: in vivo

For O=c1ccc(O)ccc1O, the Activity (Rattus norvegicus [1]) was “Non-toxic”, the Activity (Rattus norvegicus [2]) was “Non-toxic” and the mortality [3] was 33%. The LD50 [4] was 6440 µmol/kg, the “inhibition (INH)” value (Rattus norvegicus [5]) was 75% and the “inhibition (INH)” value (Rattus norvegicus [6]) was 48%. The “inhibition (INH)” value (Rattus norvegicus [7]) was 75%, the Activity (Rattus norvegicus [8]) was “Toxic” and the “inhibition (INH)” value (Rattus norvegicus [9]) was 83%. The Activity (Rattus norvegicus [10]) was “Non-toxic”, the Activity (Oryctolagus cuniculus [11]) was 212.5 mm2 and the Activity (Rattus norvegicus [12]) was “Toxic”. For the same compound, the mortality [13] was 16%, the mortality [14] was 66% and the Activity (Oryctolagus cuniculus [15]) was 196 mm2. The Activity (Oryctolagus cuniculus [16]) was 256 mm2, the “inhibition (INH)” value (Rattus norvegicus [17]) was 79% and the Activity (Rattus norvegicus [18]) was “Toxic”. For the same compound, the Activity (Oryctolagus cuniculus [19]) was 267.5 mm2, the “inhibition (INH)” value (Rattus norvegicus [20]) was 67% and the “inhibition (INH)” value (Rattus norvegicus [21]) was 76%. For the same compound, the “inhibition (INH)” value (Rattus norvegicus [22]) was 52%, the “inhibition (INH)” value (Rattus norvegicus [23]) was 41% and the “inhibition (INH)” value (Rattus norvegicus [24]) was 42%. The Activity (Rattus norvegicus [25]) was “Toxic”, the “inhibition (INH)” value (Rattus norvegicus [26]) was 72% and the Activity (Rattus norvegicus [27]) was “Toxic”. For the same compound, the “inhibition (INH)” value (Rattus norvegicus [28]) was 45%.

In the case of COc1ccc2c(c1)c(CC(=O)O)c(C)n2C(=O)c1ccc(Cl)cc1 [INDOMETHACIN], the “inhibition (INH)” value (Rattus norvegicus [29]) is reported as 45%, the “inhibition (INH)” value (Rattus norvegicus [30]) is reported as 51% and the Activity (Rattus norvegicus [31]) is reported as “Toxic”. The “inhibition (INH)” value (Rattus norvegicus [32]) was 50%, the Activity (Oryctolagus cuniculus [33]) was 279.3 mm2 and the Activity (Oryctolagus cuniculus [34]) was 227 mm2. For the same compound, the Activity (Rattus norvegicus [35]) was “Non-toxic”.
